The numbers were not newly measured in patent US10632137B2, “Composition containing ivermectin for exterminating Clavinema mariae infection on Sebastes schlegeli” (REPUBLIC OF KOREA (National Institute of Fisheries Science), priority 2017, dated 2020), which cites them from elsewhere.

The conditions of the data set: humans, after oral administration; cited from earlier work.

As for `CC[C@H](C)[C@H]1O[C@]2(C=C[C@@H]1C)C[C@@H]1C[C@@H](C/C=C(\C)[C@@H](O[C@H]3C[C@H](OC)[C@@H](O[C@H]4C[C@H](OC)[C@@H](O)[C@H](C)O4)[C@H](C)O3)[C@@H](C)/C=C/C=C3\CO[C@@H]4[C@H](O)C(C)=C[C@@H](C(=O)O1)[C@]34O)O2` [avermectin], the “Time to maximum plasma concentration” value was 4 h and the half-life entry is reported as “about 16 hours”.
